Test results: patent US10011629B2, “Nucleoside analogs for treatment of the flaviviridae family of viruses and cancer” (Cocrystal Pharma, Inc., priority 2015, dated 2018)
“Also recorded” adds a separate entry of the source. Where two headings read alike, the source gives them in different places.

Assays:
[1] = tested on: cellular rRNA (internal control, measure of cytotoxicity); assay: Cytotoxicity in HCV replicon assay (ΔCt rRNA); format: cell-based; settings: human
Procedure: (§1) Huh 7 Clone B cells containing HCV Replicon RNA were seeded in a 96-well plate at 5000 cells/well, and the compounds tested at 10 μM in triplicate immediately after seeding. Following five days incubation (37° C., 5% CO2), total cellular RNA was isolated by using versaGene RNA purification kit from Gentra. Replicon RNA and an internal control (TaqMan rRNA control reagents, Applied Biosystems) were amplified in a single step multiplex Real Time RT-PCR Assay. The antiviral effectiveness of the compounds was calculated by subtracting the threshold RT-PCR cycle of the test compound from the threshold RT-PCR cycle of the no-drug control (ΔCt HCV). A ΔCt of 3.3 equals a 1-log reduction (equal to 90% less starting material) in Replicon RNA levels. The cytotoxicity of the compounds was also calculated by using the ΔCt rRNA values. 2′-C-Me-C was used as the positive control. To determine EC90 and IC50 values^2, ΔCt: values were first converted into fraction of starting material^3 and then were used to calculate the % inhibition.

[2] = tested on: HCV 1b (Huh 7 Clone B cells containing HCV Replicon RNA); assay: HCV replicon assay; format: cell-based; settings: Hepatitis C virus
Procedure: as §1, with “inhibition. […]” for “inhibition.”

[3] = tested on: Primary Human Hepatocytes; assay: Cellular egress from Primary Human Hepatocytes; settings: sofosbuvir pre-incubated 10 μM 12 h; time 48 hr
Procedure: FIGS. 6a and 6b are charts and tables showing cellular egress of Compound 9 (FIG. 6a) and sofosbuvir (FIG. 6b) from Primary Human Hepatocytes. The results are of freshly plated human hepatocytes ([…]) from a donor, where the cells were plated in 24-well plates. The compounds were pre-incubated at a concentration of 10 μM for 12 h, and cells were harvested at 0, 1, 2, 4, 10, 24 and 48 hours. The results for the monophosphate are shown in grey, for the diphosphate in orange, and for the triphosphate in blue.

Huh-7 cells = assay: Cellular pharmacology in Huh7 cells (intracellular metabolites)
Procedure: Ice-cold 70% methanol was used as the extraction solvent. ddATP (10 nM) was used as the internal standard.

[4] = tested on: nuclear DNA (ß-actin or rRNA gene) in HepG2 cells; assay: Nuclear DNA level in HepG2 cells (real-time PCR); format: cell-based, human; settings: Homo sapiens, HepG2, 336 h
Procedure: (§2) This assay was used in all studies described in this application that determine the effect of compounds on mitochondrial DNA content. In this assay, low-passage-number HepG2 cells were seeded at 5,000 cells/well in collagen-coated 96-well plates. Test compounds were added to the medium to obtain final concentrations of 0 μM, 0.1 μM, 10 μM and 100 μM. […] The mitochondrial cytochrome c oxidase subunit II (COXII) gene and the ß-actin or rRNA gene were amplified from 5 μl of the eluted nucleic acids using a multiplex Q-PCR protocol with suitable primers and probes for both target and reference amplifications. […] For exon 3 of the ß-actin gene (GenBank accession number E01094) the sense, probe, and antisense primers are 5′-[…]-3′ (SEQ ID NO. 4), 5′-6-[…]-3′ (SEQ ID NO. 5) and 5′-[…]-3′ (SEQ ID NO. 6), respectively. The primers and probes for the rRNA gene are commercially available from Applied Biosystems. […] The comparative CT method uses arithmetic formulas in which the amount of target (COXII gene) is normalized to the amount of an endogenous reference (the B-actin or rRNA gene) and is relative to a calibrator (a control with no drug at day 7). The arithmetic formula for this approach is given by 2-ΔΔCT, where ΔΔCT is (CT for average target test sample−CT for target control)−(CT for average reference test−CT for reference control) (see Johnson M R, K Wang, J B Smith, M J Heslin, R B Diasio. Quantitation of dihydropyrimidine dehydrogenase expression by real-time reverse transcription polymerase chain reaction. Anal. Biochem. 2000; 278:175-184). A decrease in mitochondrial DNA content in cells grown in the presence of drug indicated mitochondrial toxicity.

[5] = tested on: mitochondrial DNA (COXII gene) in HepG2 cells; assay: Mitochondrial DNA level in HepG2 cells (real-time PCR)
Procedure: as §2, with “The” for “The comparative CT method uses arithmetic formulas in which the amount of target (COXII gene) is normalized to the amount of an endogenous reference (the B-actin or rRNA gene) and is relative to a calibrator (a control with no drug at day 7). The”

[6] = tested on: Primary human bone marrow mononuclear cells; assay: Assay for bone marrow cytotoxicity; format: cell-based; settings: organization Stem cell; read-out: Bone marrow toxicity, CC50
Procedure: (§3) Primary human bone marrow mononuclear cells can be obtained commercially from Cambrex Bioscience (Walkersville, Md.). CFU-GM assays is carried out using a bilayer soft agar in the presence of 50 units/mL human recombinant granulocyte/macrophage colony-stimulating factor, while BFU-E assays used a […] matrix containing 1 unit/mL erythropoietin (see Sommadossi J P, Carlisle R. Toxicity of 3′-azido-3′-deoxythymidine and 9-(1,3-dihydroxy-2-propoxymethyl) guanine for normal human hepatopoietic progenitor cells in vitro. Antimicrob. Agents Chemother. 1987; 31: 452-454; Sommadossi, J P, Schinazi, R F, Chu, C K, and Xie, M Y. Comparison of cytotoxicity of the (−) and (+) enantiomer of 2′,3′-dideoxy-3′-thiacytidine in normal human bone marrow progenitor cells. Biochem. Pharmacol. 1992; 44:1921-1925). Each experiment can be performed in duplicate in cells from three different donors. AZT is used as a positive control. […] Statistical analysis can be performed with Student's t test for independent non-paired samples.

[7] = Assay for bone marrow cytotoxicity; format: cell-based, human; settings: human; organization LOBP; read-out: Bone marrow toxicity, CC50
Procedure: as §3

[8] = Cytotoxicity in HCV replicon assay (ΔCt rRNA); format: cell-based; settings: human; replicon cells; CC50; read-out: CC50 or % inhibit cytotoxicity
Procedure: as §1

HepG2 cells = assay: Lactic acid production in HepG2 cells; format: cell-based, human; settings: 14-day assay
Procedure: To measure the effects of the compounds on lactic acid production, HepG2 cells from a stock culture were diluted and plated in 12-well culture plates at 2.5×10^4 cells per well. […] […] The culture medium was then filtered, and the lactic acid content in the medium was determined using a colorimetric lactic acid assay (Sigma-Aldrich). Since lactic acid product can be considered a marker for impaired mitochondrial function, elevated levels of lactic acid production detected in cells grown in the presence of test compounds would indicate a drug-induced cytotoxic effect.

[9] = Homo sapiens, HepG2, read-out: % inhibition MitDNA

In the case of `Nc1ccn([C@@H]2O[C@H](CO)[C@@H](O)[C@@]2(F)Br)c(=O)n1` [Compound 15, 2′-Deoxy-2′-bromo-2′-fluoro Cytidine], the inhibition at 5 days, 10 µM [1] is reported as 67.9% and the inhibition at 10 µM ([2]; Huh-7, HCV 1b replicon, 10 μM) is reported as 99.9%.
For `CC(C)OC(=O)[C@H](C)N[P@](=O)(OC[C@H]1O[C@@H](n2ccc(=O)[nH]c2=O)[C@](C)(F)[C@@H]1O)Oc1ccccc1` [Sofosbuvir, reference compound], the “2′-F, 2′Me UMP” value [3] was “BLOQ”, the MI [3] was “BLOQ” and the “intracellular SOF” value (Huh-7 cells; Huh-7 cells, 50 μM, 4 hr) was 206.4 ± 3.2 pmol/10^6 cells. For the same molecule, the “intracellular SOF-nuc” value (Huh-7 cells; Huh-7 cells, 50 μM, 4 hr) was “BLOQ”, the inhibition at 1 µM ([4]; read-out: % inhibition nDNA) was -98% and the inhibition at 10 µM ([4]; read-out: % inhibition nDNA) was -51%. The inhibition at 50 µM ([4]; read-out: % inhibition nDNA) was 93%, the IC50 ([4]; read-out: IC50 nDNA, HepG2 cells, 14-day assay) was 38 µM and the “Summary (mitochondrial toxicity)” value [5] was “Slightly toxic”. The inhibition at 1 µM [5, 9] was -12%, the inhibition at 10 µM [5, 9] was -18% and the inhibition at 50 µM [5, 9] was 87%. For the same molecule, the IC50 ([5]; Homo sapiens, HepG2, read-out: IC50 MitDNA, HepG2 cells, 14-day assay) was 36 µM, the “MitDNA Content (% of control)” value ([5]; human, 14 days, 1 μM) was 57 (35-93) % of control and the “MitDNA Content (% of control)” value ([5]; human, 14 days, 10 μM) was 78 (69-89) % of control. The “MitDNA Content (% of control)” value ([5]; human, 14 days, 50 μM) was 200 (136-278) % of control, the EC90 ([2]; Huh-7, HCV 1b replicon, numeric EC90, read-out: EC90 (μM or letter value) or % inhib HCV) was 0.8 µM and the EC50 ([2]; Huh-7, HCV 1b replicon, numeric, read-out: EC50 (μM or letter value)) was 0.2 µM.
With `CC(C)OC(=O)[C@H](C)NP(=O)(OC[C@H]1O[C@@H](n2ccc(=O)[nH]c2=O)C(F)(Br)C1O)Oc1ccccc1` (stereo in doubt) [Compound 9] the CC50 [6] was > 100 µM, the CC50 [7] was > 100 µM and the CC50 at 5 days [8] was > 10 µM. The “Lactic acid Production (% of control)” value (HepG2 cells; 10 μM) was 89.5 ± 2.0 % of control, the “Lactic acid Production (% of control)” value (HepG2 cells; 50 μM) was 111 ± 38.5 % of control and the “intracellular 7-DP” value (Huh-7 cells; human) was 252 ± 14 pmol/10^6 cells. For the same molecule, the “intracellular 7-MP” value (Huh-7 cells; human) was 12.4 ± 1.5 pmol/10^6 cells, the “intracellular 7-TP” value (Huh-7 cells; human) was 98.2 ± 2.2 pmol/10^6 cells and the “intracellular 9” value (Huh-7 cells; human) was 318.4 ± 26.6 pmol/10^6 cells. For the same molecule, the inhibition at 10 µM ([4]; read-out: % inhibition nDNA) was 5.2%, the inhibition at 50 µM ([4]; read-out: % inhibition nDNA) was 49.8% and the “MitDNA Content (% of control)” value ([5]; HepG2 cells, 14-day assay, 10 μM, range in parentheses) was 187 (169-206) % of control. The “MitDNA Content (% of control)” value ([5]; HepG2 cells, 14-day assay, 50 μM, range in parentheses) was 64 (45-91) % of control, the “Summary (mitochondrial toxicity)” value ([5]; HepG2 cells, 14-day assay, mitochondrial/nuclear DNA and lactic acid) was “non-toxic up to 10 μM; also recorded: not toxic up to 10 μM” and the inhibition at 10 µM [5, 9] was < 1%. The inhibition at 50 µM [5, 9] was 67.8% and the EC90 ([2]; Huh-7, read-out: EC90 (μM or letter value) or % inhib HCV) was 0.1 to 1 µM.
